Counter-ions that a name gives are not always drawn. Like-named read-outs stand apart in the source and are kept apart here.
Key:
SHP2 = SHP2 (Homo sapiens (Human), UniProt Q06124); assay: SHP2 Biochemical Assay (DiFMUP conversion, pIRS1-activated)
How it was run: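 Rates of DiFMU formation were followed 30 min at ex 360/em 450 nm, with 50 μM DiFMUP, 10 pM SHP2 and pIRS1 peptide ([…]) after 30 min compound pre-incubation at pH 7.0 Bis-Tris propane. Four-parameter logistic IC50s in singlicate; repeat runs averaged.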

[1] = test system: pERK (phospho-p44/42 MAPK Thr202/Tyr204) in HCC827 cells; assay: Cellular pERK Inhibition Assay, Method B (PathScan phospho-p44/42 MAPK sandwich ELISA); type: cell-based; details: for IC50: Homo sapiens
Description: Cellular pERK Inhibition Assay
HCC827 cells (ATCC, Manassas, USA) were seeded into 96-well plates at a density of 1×10^5 cells/well in RPMI medium supplemented with 10% FBS and incubated 24h. Compounds were diluted first in DMSO and then into serum-free medium, before being added to cells in triplicate to give a final concentration of 0.1% DMSO. Plates were incubated at 37° C. for the indicated time in a humidified atmosphere of 5% CO2 in air.
Following compound treatment, medium was removed and cells were lysed by adding 50 μL of lysis buffer (Cell Signalling Technology, Beverly, USA) to each well. Plates were then incubated at room temperature for 25 minutes with shaking. pERK levels were measured in lysates using the PathScan(Registered Trademark) phospho-p44/42 MAPK (Thr202/Tyr204) sandwich ELISA (Cell Signalling Technology, Beverly, USA) as per kit instructions. Briefly, 50 μL of cell lysate was added to 50 μL of ELISA sample diluent in a 96-well ELISA plate and incubated overnight at 4° C. Following washing, 100 μL of detection antibody was added per well and the plates incubated for 1 hour at 37° C. Plates were washed again and incubated at 37° C. for 30 minutes with 100 μl of HRP-linked secondary antibody per well. After final washing, 100 μL per well of TMB substrate was added and plates incubated at 37° C. to develop colour. Colour development was stopped by the addition of 100 μL per well of stop solution. Plates were read at 450 nm on a SpectraMax Gemini reader (Molecular Devices, Uckfield, UK).
The average signal from blank wells (no cells added) was subtracted from the signals from each sample well. Levels of pERK were then expressed as “percent of control”, using DMSO treated samples as control. Dose response curves were generated using GraphPad Prism Version 6 (GraphPad Software, La Jolla, USA) and fitted using the four parameter logistic curve fit.

[2] = Table 19, head prints unit as "-M"
[3] = Table 19, head prints unit as "-M", read-out: pERK (IC50) Method B
[4] = Table 20, read-out: pERK (IC50, μM) Method B

Chain of SHP2 (Q06124 whole entry): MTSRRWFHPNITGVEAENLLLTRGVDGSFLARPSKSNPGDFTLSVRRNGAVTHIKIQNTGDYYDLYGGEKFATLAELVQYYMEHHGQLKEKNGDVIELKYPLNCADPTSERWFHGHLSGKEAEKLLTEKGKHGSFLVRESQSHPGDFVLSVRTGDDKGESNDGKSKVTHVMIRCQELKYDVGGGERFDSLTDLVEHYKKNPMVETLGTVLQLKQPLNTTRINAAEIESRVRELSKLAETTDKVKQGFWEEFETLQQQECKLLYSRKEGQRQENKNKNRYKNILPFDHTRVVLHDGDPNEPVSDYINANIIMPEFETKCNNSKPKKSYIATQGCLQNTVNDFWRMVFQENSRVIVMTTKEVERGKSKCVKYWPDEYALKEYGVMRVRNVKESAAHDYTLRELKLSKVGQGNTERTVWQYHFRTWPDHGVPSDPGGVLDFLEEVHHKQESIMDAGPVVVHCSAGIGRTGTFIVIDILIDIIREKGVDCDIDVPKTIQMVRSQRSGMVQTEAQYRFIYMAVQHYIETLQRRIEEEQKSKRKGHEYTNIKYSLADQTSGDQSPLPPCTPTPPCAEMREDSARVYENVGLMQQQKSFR

## Cn1cc2c(Cl)c(-c3c[nH]c4nc(N5[C@@H]6CCNC[C@H]5CC6)n(C)c(=O)c34)ccc2n1 (racemic) [Example 153, rac-5-(4-chloro-2-methyl-2H-indazol-5-yl)-2-[(1R,6S)-3,9-diazabicyclo[4.2.1]nonan-9-yl]-3-methyl-3H,4H,7H-pyrrolo[2,3-d]pyrimidin-4-one]
SHP2; [2]
  IC50: 0.026 µM
[1]; [3]
  IC50: 0.52 µM

## CCn1cc2c(Cl)c(-c3c[nH]c4nc(N5CCCC(N)CC5)n(C)c(=O)c34)ccc2n1 (racemic) [Example 154, rac-2-(4-aminoazepan-1-yl)-5-(4-chloro-2-ethyl-2H-indazol-5-yl)-3-methyl-3H,4H,7H-pyrrolo[2,3-d]pyrimidin-4-one hydrochloride]
SHP2; [2]
  IC50: 0.021 µM
[1]; [3]
  IC50: 0.92 µM

## CCn1cc2c(Cl)c(-c3c[nH]c4nc(N5CC6CNC(C6)C5)n(C)c(=O)c34)ccc2n1 (single isomer, unassigned) [Example 190, 5-(4-chloro-2-ethyl-2H-indazol-5-yl)-2-{3,6-diazabicyclo[3.2.1]octan-3-yl}-3-methyl-3H,4H,7H-pyrrolo[2,3-d]pyrimidin-4-one hydrochloride]
SHP2; Table 20
  IC50: 0.045 µM
[1]; [4]
  IC50: 3.3 µM

## CCn1cc2c(Cl)c(-c3c[nH]c4nc(N5CC6CNC(C6)C5)n(C)c(=O)c34)ccc2n1 (single isomer, unassigned) [Example 191, 5-(4-chloro-2-ethyl-2H-indazol-5-yl)-2-{3,6-diazabicyclo[3.2.1]octan-3-yl}-3-methyl-3H,4H,7H-pyrrolo[2,3-d]pyrimidin-4-one hydrochloride]
SHP2; Table 20
  IC50: 0.092 µM
[1]; Table 20, at 10 uM
  pERK Method B, % at given concentration: 60% at 10 uM

## CCn1cc2c(Cl)c(-c3c[nH]c4nc(N5CC6CNCC5C6)n(C)c(=O)c34)ccc2n1 (single isomer, unassigned) [Example 192, 5-(4-chloro-2-ethyl-2H-indazol-5-yl)-2-{3,6-diazabicyclo[3.2.1]octan-6-yl}-3-methyl-3H,4H,7H-pyrrolo[2,3-d]pyrimidin-4-one hydrochloride]
SHP2; Table 20
  IC50: 0.067 µM
[1]; [4]
  IC50: 0.99 µM

## Cn1cc2c(Cl)c(-c3n[nH]c4nc(N5[C@@H]6CC[C@H]5C[C@@H](N)C6)n(C)c(=O)c34)ccc2n1 [Example 136, endo-6-[3-amino-8-azabicyclo[3.2.1]octan-8-yl]-3-(4-chloro-2-methyl-2H-indazol-5-yl)-5-methyl-1H,4H,5H-pyrazolo[3,4-d]pyrimidin-4-one]
SHP2; [2]
  IC50: 0.03 µM
[1]; [3]
  IC50: 2.7 µM

## Cn1cc2c(Cl)c(-c3n[nH]c4nc(N5C6CCC5CNC6)n(C)c(=O)c34)ccc2n1 [Example 137, 3-(4-chloro-2-methyl-2H-indazol-5-yl)-6-{3,8-diazabicyclo[3.2.1]octan-8-yl}-5-methyl-1H,4H,5H-pyrazolo[3,4-d]pyrimidin-4-one]
SHP2; [2]
  IC50: 0.059 µM
[1]; Table 19, at 3.0 μM
  pERK Method B, % at given concentration: 45% at 3.0 μM

## Cn1cc2c(Cl)c(-c3n[nH]c4nc(N5CCC6(CC5)C[C@H](O)C[C@H]6N)n(C)c(=O)c34)ccc2n1 [Example 138, 6-[(1R,3S)-1-amino-3-hydroxy-8-azaspiro[4.5]decan-8-yl]-3-(4-chloro-2-methyl-2H-indazol-5-yl)-5-methyl-1H,4H,5H-pyrazolo[3,4-d]pyrimidin-4-one]
SHP2; [2]
  IC50: 0.019 µM
[1]; [3]
  IC50: 1.6 µM

## Cn1cc2c(Cl)c(-c3n[nH]c4nc(N5CCC6(CC5)COC[C@H]6N)n(C)c(=O)c34)ccc2n1 [Example 139, 6-[(4S)-4-amino-2-oxa-8-azaspiro[4.5]decan-8-yl]-3-(4-chloro-2-methyl-2H-indazol-5-yl)-5-methyl-1H,4H,5H-pyrazolo[3,4-d]pyrimidin-4-one]
SHP2; [2]
  IC50: 0.02 µM
[1]; [3]
  IC50: 0.097 µM

## Cn1cc2c(Cl)c(-c3n[nH]c4nc(N5[C@@H]6CC[C@H]5C[C@H](N)C6)n(C)c(=O)c34)ccc2n1 [Example 140, exo-6-[3-amino-8-azabicyclo[3.2.1]octan-8-yl]-3-(4-chloro-2-methyl-2H-indazol-5-yl)-5-methyl-1H,4H,5H-pyrazolo[3,4-d]pyrimidin-4-one]
SHP2; [2]
  IC50: 0.017 µM
[1]; [3]
  IC50: 0.48 µM

## Cn1cc2c(Cl)c(-c3n[nH]c4nc(N5CCC6(CC5)CNC6)n(C)c(=O)c34)ccc2n1 [Example 141, 3-(4-chloro-2-methyl-2H-indazol-5-yl)-6-{2,7-diazaspiro[3.5]nonan-7-yl}-5-methyl-1H,4H,5H-pyrazolo[3,4-d]pyrimidin-4-one]
SHP2; [2]
  IC50: 0.043 µM
[1]; Table 19, at 10 μM
  pERK Method B, % at given concentration: 64% at 10 μM

## Cn1cc2c(Cl)c(-c3n[nH]c4nc(N5CCC6(CCC[C@H]6N)CC5)n(C)c(=O)c34)ccc2n1 [Example 142, 6-[(1R)-1-amino-8-azaspiro[4.5]decan-8-yl]-3-(4-chloro-2-methyl-2H-indazol-5-yl)-5-methyl-1H,4H,5H-pyrazolo[3,4-d]pyrimidin-4-one]
SHP2; [2]
  IC50: 0.017 µM
[1]; [3]
  IC50: 0.11 µM

## C[C@@H]1OCC2(CCN(c3nc4[nH]nc(-c5ccc6nn(C)cc6c5Cl)c4c(=O)n3C)CC2)[C@@H]1N [Example 143, 6-[(3S,4S)-4-amino-3-methyl-2-oxa-8-azaspiro[4.5]decan-8-yl]-3-(4-chloro-2-methyl-2H-indazol-5-yl)-5-methyl-1H,4H,5H-pyrazolo[3,4-d]pyrimidin-4-one]
SHP2; [2]
  IC50: 0.022 µM
[1]; [3]
  IC50: 0.081 µM

## Cn1cc2c(Cl)c(-c3n[nH]c4nc(N5CCC6(CC5)C[C@@H](F)C[C@H]6N)n(C)c(=O)c34)ccc2n1 [Example 144, 6-[(1R,3R)-1-amino-3-fluoro-8-azaspiro[4.5]decan-8-yl]-3-(4-chloro-2-methyl-2H-indazol-5-yl)-5-methyl-1H,4H,5H-pyrazolo[3,4-d]pyrimidin-4-one hydrochloride salt]
SHP2; [2]
  IC50: 0.019 µM
[1]; [3]
  IC50: 0.21 µM

## Cn1nc2ccc(-c3n[nH]c4nc(N5CC6COCC(C5)N6)n(C)c(=O)c34)c(Cl)c2c1Cl [Example 146, 3-(3,4-dichloro-2-methyl-2H-indazol-5-yl)-5-methyl-6-{3-oxa-7,9-diazabicyclo[3.3.1]nonan-7-yl}-1H,4H,5H-pyrazolo[3,4-d]pyrimidin-4-one hydrochloride salt]
SHP2; [2]
  IC50: 0.057 µM
[1]; [3]
  IC50: 3.8 µM

## C[C@@H]1OCC2(CCN(c3nc4[nH]nc(-c5ccc6nn(C)c(Cl)c6c5Cl)c4c(=O)n3C)CC2)[C@@H]1N [Example 147, 6-[(3S,4S)-4-amino-3-methyl-2-oxa-8-azaspiro[4.5]decan-8-yl]-3-(3,4-dichloro-2-methyl-2H-indazol-5-yl)-5-methyl-1H,4H,5H-pyrazolo[3,4-d]pyrimidin-4-one hydrochloride salt]
SHP2; [2]
  IC50: 0.012 µM
[1]; [3]
  IC50: 0.034 µM

## CCn1cc2c(Cl)c(-c3n[nH]c4nc(N5CCC6(CC5)CO[C@@H](C)[C@H]6N)n(C)c(=O)c34)ccc2n1 [Example 148, 6-[(3S,4S)-4-amino-3-methyl-2-oxa-8-azaspiro[4.5]decan-8-yl]-3-(4-chloro-2-ethyl-2H-indazol-5-yl)-5-methyl-1H,4H,5H-pyrazolo[3,4-d]pyrimidin-4-one hydrochloride salt]
SHP2; [2]
  IC50: 0.024 µM
[1]; [3]
  IC50: 0.025 µM

## CCn1cc2c(Cl)c(-c3c[nH]c4nc(N5CCC6(CC5)CO[C@@H](C)[C@H]6N)n(C)c(=O)c34)ccc2n1 [Example 150, 2-[(3S,4S)-4-amino-3-methyl-2-oxa-8-azaspiro[4.5]decan-8-yl]-5-(4-chloro-2-ethyl-2H-indazol-5-yl)-3-methyl-3H,4H,7H-pyrrolo[2,3-d]pyrimidin-4-one]
SHP2; [2]
  IC50: 0.012 µM
[1]; [3]
  IC50: 0.013 µM

## CCn1cc2c(Cl)c(-c3c[nH]c4nc(N5CCCNCC5)n(C)c(=O)c34)ccc2n1 [Example 151, 5-(4-chloro-2-ethyl-2H-indazol-5-yl)-2-(1,4-diazepan-1-yl)-3-methyl-3H,4H,7H-pyrrolo[2,3-d]pyrimidin-4-one hydrochloride]
SHP2; [2]
  IC50: 0.023 µM
[1]; [3]
  IC50: 0.52 µM

## CCn1cc2cc(-c3c[nH]c4nc(N5CCC6(CC5)COC[C@H]6N)n(C)c(=O)c34)ccc2n1 [Example 180, 2-[(4S)-4-amino-2-oxa-8-azaspiro[4.5]decan-8-yl]-5-(2-ethyl-2H-indazol-5-yl)-3-methyl-3H,4H,7H-pyrrolo[2,3-d]pyrimidin-4-one hydrochloride]
SHP2; Table 20
  IC50: 0.034 µM
[1]; [4]
  IC50: 0.85 µM

## CCn1cc2c(F)c(-c3c[nH]c4nc(N5CCC6(CC5)COC[C@H]6N)n(C)c(=O)c34)ccc2n1 [Example 181, 2-[(4S)-4-amino-2-oxa-8-azaspiro[4.5]decan-8-yl]-5-(2-ethyl-4-fluoro-2H-indazol-5-yl)-3-methyl-3H,4H,7H-pyrrolo[2,3-d]pyrimidin-4-one hydrochloride]
SHP2; Table 20
  IC50: 0.023 µM
[1]; [4]
  IC50: 0.21 µM
